Experiment [1] concerns the target FKBP12 (Homo sapiens, UniProt P62942). Description: Spectral shift target engagement assay, binary binding to FKBP12. The following applies: 40 nM FKBP12-NTA. An excerpt: (§1) Our method of choice is the spectral shift method, which monitors binding events on the target isothermally and in equilibrium via an environment-sensitive near-infrared fluorophore. In the case of target engagement, either the proximity of the ligand towards the dye or structural changes occurring in the target as a result of binding lead to a change in the chemical environment of the fluorophore. Those changes affect the physiochemical properties of the reporter fluorophore and translate into either blue or red shifts (or peak broadening) of emission peaks upon ligand binding, which can be sensitively monitored by simultaneously recording the fluorescence at two wavelengths (i.e., at 650 nm and 670 nm). Calculating the ratio between the two fluorescence channels then allows to monitor subtle emission shifts that occur as a result of target engagement. Affinity measurements can then be performed by recording the spectral shift as a function of ligand concentration.
Binding studies through FKBP12: To monitor the binding of R,--SLF-11 by the stronger binding FKBP12 in the absence and in the presence of 10 μM MAPRE1 via %Cbound, binary and %Cbound, ternary, respectively, the concentration of reversibly NTA-labeled FKBP12 was limited to [Ctot] = 40 nM. […] In contrast to the experimental setup in the previous two binding experiments with monitoring through the weaker binding protein MAPRE1, where the applied protein concentrations were optimally chosen, this is not the case for the binding experiment through the stronger binder FKBP12. First of all, the applied excess of T with [Ttot] = 10 μM is roughly 20000-fold off of the proposed 100 times KT,1 threshold, which would correspond to 180 mM. Only under such excess conditions of T can the equilibrium of forming TL under the constraint that all ligand L is bound to T be reached to ensure that [Ltot] approaches the “ligand” concentration [TL]. […] If KC,2 is sufficiently high, the 20 nM deviation to correct for the protein concentration could be neglected. However, the resulting calculated value for KC,2 is 0.023 nM, accounting for the cooperativity α = 10,405 and KC,1 = 234 nM as derived by the MAPRE1 experiment. This value is far below the applied protein concentration of [Ctot] = 40 nM and makes it infeasible to estimate KC,2 from the EC50 of the %Cbound, ternary curve. Consequently, the EC50 shifts, meaning the apparent cooperativity, from monitoring the binding by the stronger binding protein C are diverging from the underlying intrinsic cooperativity α. […] The deviation of calculated (254 nM/24.2 nM = 10.5) and measured apparent cooperativity (254 nM/66 nM = 3.8) can be explained by a negative cooperativity induced by the His6-NTA tag of FKBP12. Studies to lower [Ctot] and identify a better position for the spectral shift tag on FKBP12 are ongoing (Figure 6a).
(§2) His-tagged FKBP12 was labeled using the His-Tag Labeling Kit RED-tris-NTA 2nd Generation (MO-L018; NanoTemper Technologies GmbH). The affinity between NTA dye and the His-tag of FKBP12 was determined as 7 nM. MAPRE1 was labeled using the Protein Labeling Kit RED-NHS 2nd Generation (MO-L011; NanoTemper Technologies GmbH). In brief, 10 µM of MAPRE1 was incubated with a 3-fold molar excess of fluorophore for 30 min. The unreacted fluorophore was removed by performing a size exclusion purification (B-column). Collecting the protein fraction yielded 1.8 µM labeled MAPRE1, with a degree of labeling of 0.8, as determined on a Nanodrop.
A 1:2 dilution series of all compounds (starting from the 10 mM stock concentration) was prepared in pure DMSO. Each concentration was diluted 25-fold with assay buffer (20 mM HEPES, pH 7.4, 150 mM NaCl, 1 mM DTT (all from Carl Roth, Karlsruhe, Germany), and 0.01% Pluronic F-127 (Sigma Aldrich, Taufkirchen, Germany)). Next, 10 µL from each of the prepared ligand dilutions was transferred into an empty well on a Dianthus Microwell Plate (DI-P001A). […]

Experiment [2] deals with T1, MAPRE1 in the presence of FKBP12 (Homo sapiens, UniProt P62942+Q15691).
T1 construct: His-tag (N)
T1 sequence (Q15691 whole entry): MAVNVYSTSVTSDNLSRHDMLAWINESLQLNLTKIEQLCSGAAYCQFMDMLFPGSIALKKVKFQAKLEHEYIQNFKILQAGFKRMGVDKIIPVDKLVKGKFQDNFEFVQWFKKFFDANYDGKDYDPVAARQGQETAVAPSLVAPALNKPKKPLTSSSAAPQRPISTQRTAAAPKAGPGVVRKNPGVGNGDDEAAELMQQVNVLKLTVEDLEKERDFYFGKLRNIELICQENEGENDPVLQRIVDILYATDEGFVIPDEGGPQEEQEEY
T1 sequence (P62942 whole entry): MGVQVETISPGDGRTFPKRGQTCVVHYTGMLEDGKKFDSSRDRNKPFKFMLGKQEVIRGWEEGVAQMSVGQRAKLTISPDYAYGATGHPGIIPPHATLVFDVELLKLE
Description: Spectral shift target engagement assay, binding to MAPRE1 in the presence of 10 μM FKBP12 (ternary).
Description: as §1
Binding study through MAPRE1: MAPRE1 was labeled via lysines using an NHS-conjugated dye. The final concentration of MAPRE1NHS (referring to [Ttot]) was 5 nM. Compounds could be titrated up to a concentration of 200 μM (referring to [Ltot]). […] However more accuracy could only be achieved at higher ligand concentrations—ideally at full target saturation. However, this was experimentally infeasible due to assay conditions (i.e., the requirement of maintaining a certain DMSO concentration or avoiding solubility issues of the ligand). Although the determined KT,1 values of binding to MAPRE1 are only approximations, their relative ranking reflects the underlying differences in the affinity of the ligands L to MAPRE1. Performing these experiments in duplicates confirmed the high signal-to-noise ratio, i.e., there was no significant deviation between the two curves, indicating a high accuracy of the interpolated EC50 values. Due to the low [Ttot] = 5 nM, this value coincides with KT,1 (1.8 mM − 0.005 mM/2 ≈ 1.8 mM). […] Consequently, KT,2 corresponds to 173 nM and not 177.5 nM.
as §2
A 1:2 dilution series of all compounds (starting from the 10 mM stock concentration) was prepared in pure DMSO. Each concentration was diluted 25-fold with assay buffer (20 mM HEPES, pH 7.4, 150 mM NaCl, 1 mM DTT (all from Carl Roth, Karlsruhe, Germany), and 0.01% Pluronic F-127 (Sigma Aldrich, Taufkirchen, Germany)). Next, 10 µL from each of the prepared ligand dilutions was transferred into an empty well on a Dianthus Microwell Plate (DI-P001A). Another 10 µL of 2-fold concentrated labeled protein (either in the absence or the presence of 20 µM counter protein, both in assay buffer then yielded the final assay concentrations. Interaction measurements were prepared in duplicates for each condition. For binary interactions of compounds with MAPRE1, a final target concentration of 5 nM and a highest ligand concentration of 50 µM was prepared. For ternary interactions of compounds and MAPRE1 in the presence of 10 µM unlabeled FKBP12, the highest ligand concentration was increased to 200 µM, the highest concentration achievable while maintaining a constant 2% DMSO concentration. For all interactions measured via FKBP12, the target was prepared at a final concentration of 40 nM, supplemented with 5 nM NTA fluorophore. […]

The test system of experiment [3] is FKBP12:R,S-SLF-X:MAPRE1 ternary complex. On the set-up: method as in PMID 40059881. The following applies: TR-FRET proximity assay, reported earlier; cited from earlier work.

“And” between values parts separate entries of the source, which are not always exact repeats. Equal values may be shown once.

Sequence of FKBP12 (P62942 whole entry, species assumed): as the sequence (P62942 whole entry) above

`C=C1CCN2C(=O)COc3cccc(c3)C(CCc3ccc(OC)c(OC)c3)OC(=O)C3CCCCN3C(=O)C(=O)C(C)(C)COC(=O)C(CN)NC(=O)C2C1` (centres unmarked) [R,S-SLF-7]: the EC50 in experiment [1] (no MAPRE1, read-out: EC50 of the %Cbound, binary curve) was found to be 186 nM; in experiment [2] (5 nM MAPRE1-NHS, 10 μM FKBP12, read-out: EC50 of the %Tbound, ternary curve), 1990 nM. In addition, the Kd in experiment [1] (KC,1 = EC50 − [Ctot]/2) is 166 nM; in experiment [2] (ternary Kd, model-based ([CL] at [Ltot] = EC50), read-out: KT,2) it was 1940 nM. Further, the “Ratio [Ctot]/KC,1” value in experiment [2] ([Ctot] = 10 μM FKBP12) is 60. For the same molecule, in experiment [2] (difference between EC50 of the %Tbound, ternary curve and KT,2, [Ttot] = 5 nM), the “100 × (EC50 %Tbound ternary − 0.5 [Ttot] − KT,2)/KT,2” value was 2% and 2.1%. For the same molecule, the “Intrinsic cooperativity α” value in experiment [2] (from KC,1, KT,1 and EC50 of the %Tbound, ternary curve with the mathematical model, [Ctot] = 10,000 nM, [Ttot] = 5 nM) is given as 237. Moreover, the “TR-FRET Recruitment Assay (%Amax)” value in experiment [3] is given as 45%.

What is called EC50 is the concentration needed to bring the measured effect to its halfway point.

The record behind these values is PMC11989212, “Experimental Conditions to Retrieve Intrinsic Cooperativity α Directly from Single Binding Assay Data Exemplified by the Ternary Complex Formation of FKBP12, MAPRE1 and Macrocyclic Molecular Glues” (International Journal of Molecular Sciences, 2025).
